Columns and labels:
Type in all cases: binding
[1] = test system: lysines in the human breast cancer cell MDA-MB-231 proteome; assay: competitive isoTOP-ABPP, proteome-wide fragment reactivity; details: for proteome-wide reactivity: fragments 50-100 μM; for lysines reacted that showed negligible cross-reactivity with activated esters: human cell proteomes
Experimental: In vitro covalent fragment treatment for isoTOP-ABPP. All compounds were made up as solutions in DMSO (100×) and were used at a final concentration of 50 μM for activated esters and 100 μM for guanidinylating agents. For each profiling sample, 0.5 ml of lysate was treated with 5 μl of the 100× compound stock solution or 5 μl of DMSO. Samples were treated with activated esters for
STP-alkyne labeling and click chemistry. For concentration-dependent reactivity measurements by isoTOP-ABPP, 0.5 ml proteome aliquots were treated at ambient temperature with 1 mM STP-alkyne 1 (5 μl of 100 mM stock in DMSO) and 0.1 mM STP alkyne 1 (5 μl of 10 mM stock in DMSO), respectively. For competitive isoTOP-ABPP, after in vitro fragment treatment (detailed above), the samples were labeled for 1 h at ambient temperature with 0.1 mM STP-alkyne 1 (5 μl of 10 mM stock in DMSO). Samples were conjugated by copper-mediated azide-alkyne cycloaddition (CuAAC) to either the light (1 mM STP-alkyne or fragment treated) or heavy (0.1 mM STP-alkyne or DMSO treated) TEV tags (10 μl of 5 mM stocks in DMSO, final concentration=100 μM) using tris(2-carboxyethyl)phosphine hydrochloride
R value calculation and processing. The ratios of light and heavy MS1 peaks for each unique peptide were quantified with a CIMAGE software using default parameters (3 MS1 acquisitions per peak and signal to noise threshold set to 2.5). For reactivity measurements by isoTOP-ABPP, the R value was calculated from the ratio of MS1 peak areas, comparing the 1 mM STP alkyne sample (light TEV tag) with the 0.1 mM STP alkyne sample (heavy TEV tag). For competitive isoTOP-ABPP, the R value was calculated from the ratio of MS1 peak areas, comparing the DMSO treated sample (heavy TEV tag) with the compound treated sample (light TEV tag). […] Ratios for unique peptide entries are calculated for each experiment; overlapping peptides with the same modified lysine (for example, different charge states, MudPIT chromatographic steps or tryptic termini) are grouped together and the median ratio is reported as the final ratio (R). The peptide ratios reported by CIMAGE were further filtered to ensure the removal or correction of low-quality ratios in each individual data set. The quality filters applied were the following: removal of half tryptic peptides; for ratios with high standard deviations from the median (90% of the median or above) the lowest ratio was taken instead of the median; removal of peptides with R=20 and only a single MS2 event triggered during the elution of the parent ion; manual annotation of all the peptides with ratios of 20, removing any peptides with low quality elution profiles that remained after the previous curation steps (only done for competitive isoTOP-ABPP).
Cross-data processing for fragment screening. For compound treated samples, biological replicates of the same condition were averaged, if the standard deviation was below 60% of the mean; otherwise, for lysines with at least one R value <4 for a particular compound, the lowest value of the ratio set was taken. For lysines, where all R values for a particular compound were ≥4, the average was reported. For peptides containing several possible modified lysines, the lysine with the highest number of quantification events was used for analysis and the remaining, redundant peptides were reported as alternative modification sites. Peptides included in the aggregate dataset (those used for further bioinformatics and statistical analyses) were required to have been quantified in 2 experiments for competitive isoTOP-ABPP. Lysines were categorized as liganded, if they had at least one ratio R≥4 (hit fragments). For liganded lysines with R=20 for all liganding events, lysines were required to have been quantified with R=20 in two separate experiments and were further required to have been quantified with R<20 in one additional experiment. […]

[2] = biological target: T1, HAUS4 HAUS augmin-like complex subunit 4 (Homo sapiens, UniProt Q9H6D7); assay: competitive isoTOP-ABPP; details: for R value (DMSO/fragment) for probe 1 labeling: Q9H6D7_K271; for R value (DMSO/fragment) for probe 1 labeling / isoTOP-ABPP reactivity ratio at lysine Q9H6D7_K271 / isoTOP-ABPP ratio (R) at liganded lysine Q9H6D7_K271: 50 uM, in vitro; for R value (DMSO/fragment) for probe 1 labeling / isoTOP-ABPP reactivity ratio at lysine Q9H6D7_K271: 231 sol; for isoTOP-ABPP ratio (R) at liganded lysine Q9H6D7_K271: sol, 231
T1 construct: endogenous in cells; host or cells: MDA-MB-231 (soluble fraction of lysate)
T1 sequence (Q9H6D7 1-363): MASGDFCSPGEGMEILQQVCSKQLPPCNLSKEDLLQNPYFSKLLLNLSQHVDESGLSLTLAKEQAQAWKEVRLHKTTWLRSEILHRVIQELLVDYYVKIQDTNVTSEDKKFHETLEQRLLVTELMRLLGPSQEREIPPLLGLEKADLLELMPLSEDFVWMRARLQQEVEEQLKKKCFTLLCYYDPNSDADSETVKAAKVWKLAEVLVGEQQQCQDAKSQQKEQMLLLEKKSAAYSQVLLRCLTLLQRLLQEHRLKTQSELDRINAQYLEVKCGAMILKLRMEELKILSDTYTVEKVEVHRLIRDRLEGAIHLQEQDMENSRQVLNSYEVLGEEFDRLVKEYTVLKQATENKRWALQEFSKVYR
In short: (§1)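 Lysine engagement is reported as R, the MS1 peak-area ratio of heavy-tagged DMSO to light-tagged compound samples. Final fragment concentrations were 50 μM for activated esters and 100 μM for guanidinylating agents; STP-alkyne probe 0.1 mM, 1 h.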

[3] = biological target: T2, SNX8 Sorting nexin-8 (Homo sapiens, UniProt Q9Y5X2); assay: competitive isoTOP-ABPP; details: for isoTOP-ABPP reactivity ratio at lysine Q9Y5X2_K316 / isoTOP-ABPP ratio (R) at liganded lysine Q9Y5X2_K316: 50 uM, in vitro; for isoTOP-ABPP reactivity ratio at lysine Q9Y5X2_K316: 231 sol; for isoTOP-ABPP ratio (R) at liganded lysine Q9Y5X2_K316: sol, 231; for isoTOP-ABPP ratio, lysine Q9Y5X2_K316: 50 uM_231_sol_in vitro
T2 construct: endogenous in cells; host or cells: MDA-MB-231 lysate
T2 sequence (Q9Y5X2 1-465): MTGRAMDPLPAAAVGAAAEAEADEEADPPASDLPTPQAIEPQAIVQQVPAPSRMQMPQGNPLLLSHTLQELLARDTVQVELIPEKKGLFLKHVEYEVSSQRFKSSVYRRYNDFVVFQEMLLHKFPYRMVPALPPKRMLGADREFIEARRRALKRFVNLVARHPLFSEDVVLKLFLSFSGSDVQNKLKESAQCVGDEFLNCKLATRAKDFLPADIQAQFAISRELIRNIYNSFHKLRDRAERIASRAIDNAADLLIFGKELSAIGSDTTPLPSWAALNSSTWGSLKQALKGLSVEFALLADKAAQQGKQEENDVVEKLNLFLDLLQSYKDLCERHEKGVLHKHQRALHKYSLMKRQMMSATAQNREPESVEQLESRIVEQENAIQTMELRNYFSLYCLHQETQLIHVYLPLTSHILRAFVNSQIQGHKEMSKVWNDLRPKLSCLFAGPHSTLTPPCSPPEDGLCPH
In short: as §1

SMILES: O=C(Oc1c(F)c(F)c(F)c(F)c1F)C(c1ccccc1)c1ccccc1 [fragment 20, Pentafluorophenyl 2,2-diphenylacetate]
- proteome-wide reactivity [1]: limited reactivity across the proteome
- R value (DMSO/fragment) for probe 1 labeling [2]: 0.7

SMILES: O=C(Oc1c(F)c(F)c(F)c(F)c1F)c1cc(C(F)(F)F)cc(C(F)(F)F)c1 [fragment 21, Pentafluorophenyl 3,5-bis(trifluoromethyl)benzoate]
- proteome-wide reactivity [1]: low proteome-wide reactivity

SMILES: Cn1cc(CC(=O)Oc2c(F)c(F)c(F)c(F)c2F)c2ccccc21 [fragment 22, Pentafluorophenyl 2-(1-methyl-1H-indol-3-yl)acetate]
- R value (DMSO/fragment) for probe 1 labeling [2]: 0.9

SMILES: O=C(Oc1c(F)c(F)c(F)c(F)c1F)C1CCN(C(=O)OCc2ccccc2)CC1 [fragment 24, 1-Benzyl 4-(pentafluorophenyl) piperidine-1,4-dicarboxylate]
- isoTOP-ABPP reactivity ratio at lysine Q9H6D7_K271 [2]: 0.8

SMILES: O=C(CCc1cn(-c2ccccc2)nc1-c1ccccc1)Oc1ccc([N+](=O)[O-])cc1[N+](=O)[O-] [fragment 29, 2,4-Dinitrophenyl 3-(1,3-diphenyl-1H-pyrazol-4-yl)propanoate]
- proteome-wide reactivity [1]: much greater proteome-wide reactivity
- isoTOP-ABPP reactivity ratio at lysine Q9Y5X2_K316 [3]: 3.4

SMILES: O=C(Oc1ccc([N+](=O)[O-])cc1[N+](=O)[O-])C(c1ccccc1)c1ccccc1 [fragment 30, 2,4-Dinitrophenyl 2,2-diphenylacetate]
- proteome-wide reactivity [1]: much greater proteome-wide reactivity
- isoTOP-ABPP reactivity ratio at lysine Q9H6D7_K271 [2]: 1.0

SMILES: Cn1cc(CC(=O)Oc2ccc([N+](=O)[O-])cc2[N+](=O)[O-])c2ccccc21 [fragment 32, 2,4-Dinitrophenyl 2-(1-methyl-1H-indol-3-yl)acetate]
- isoTOP-ABPP reactivity ratio at lysine Q9H6D7_K271 [2]: 1.0

SMILES: COc1cc(CCC(=O)Oc2ccc([N+](=O)[O-])cc2[N+](=O)[O-])cc(OC)c1OC [fragment 33, 2,4-Dinitrophenyl 3-(3,4,5-trimethoxyphenyl)propanoate]
- isoTOP-ABPP reactivity ratio at lysine Q9Y5X2_K316 [3]: 4.1

SMILES: O=C(CCc1coc2cc(F)ccc2c1=O)Oc1ccc([N+](=O)[O-])cc1[N+](=O)[O-] [fragment 36, 2,4-Dinitrophenyl 3-(7-fluoro-4-oxo-4H-chromen-3-yl)propanoate]
- isoTOP-ABPP ratio (R) at liganded lysine Q9Y5X2_K316 [3]: 3.6

SMILES: O=C(Oc1ccc([N+](=O)[O-])cc1[N+](=O)[O-])c1ccc(-c2ccccc2)cc1 [fragment 37, 2,4-Dinitrophenyl [1,1′-biphenyl]-4-carboxylate]
- isoTOP-ABPP ratio (R) at liganded lysine Q9H6D7_K271 [2]: 0.7

SMILES: O=C(Oc1ccc([N+](=O)[O-])cc1[N+](=O)[O-])c1ccc(Oc2ccccc2)cc1 [fragment 39, 2,4-Dinitrophenyl 4-phenoxybenzoate]
- isoTOP-ABPP ratio (R) at liganded lysine Q9Y5X2_K316 [3]: 1.4

SMILES: O=C(Oc1ccc([N+](=O)[O-])cc1[N+](=O)[O-])c1ccccc1Nc1cccc(C(F)(F)F)c1 [fragment 40, 2,4-Dinitrophenyl 2-((3-(trifluoromethyl)phenyl)amino)benzoate]
- isoTOP-ABPP ratio (R) at liganded lysine Q9H6D7_K271 [2]: 0.7
- isoTOP-ABPP ratio (R) at liganded lysine Q9Y5X2_K316 [3]: 2.0

SMILES: N#Cc1ccc(C(=O)Oc2ccc([N+](=O)[O-])cc2[N+](=O)[O-])cc1 [fragment 44, 2,4-Dinitrophenyl 4-cyanobenzoate]
- isoTOP-ABPP ratio, lysine Q9H6D7_K271 ([2]; 50 uM_231_sol_in vitro): 0.9

SMILES: O=C(CCc1ccc2c(c1)OCO2)Oc1ccc([N+](=O)[O-])cc1[N+](=O)[O-] [fragment 45, 2,4-Dinitrophenyl 3-(benzo[d][1,3]dioxol-5-yl)propanoate]
- isoTOP-ABPP ratio, lysine Q9H6D7_K271 ([2]; 50 uM_231_sol_in vitro): 1.1

SMILES: O=C(ON1C(=O)CCC1=O)c1cc(C(F)(F)F)cc(C(F)(F)F)c1 [fragment 46, 3,5-Bis(trifluoromethyl)benzoic acid NHS ester]
- isoTOP-ABPP ratio, lysine Q9Y5X2_K316 [3]: 2.7

SMILES: COC(=O)NC(=NC(=O)OCC1c2ccccc2-c2ccccc21)n1cccn1 [fragment 49, N-Methoxycarbonyl-N′-9-fluorenylmethoxycarbonyl-pyrazole-1-carboxamidine]
- lysines reacted that showed negligible cross-reactivity with activated esters [1]: 15

SMILES: CC(C)(C)OC(=O)N=C(NC(=O)OC(C)(C)C)n1cccn1 [fragment 50, reference compound]
- lysines reacted that showed negligible cross-reactivity with activated esters [1]: 15
- isoTOP-ABPP ratio, lysine Q9H6D7_K271 ([2]; 100 uM_231_sol_in vitro): 4.3

SMILES: NC(=O)c1cc(C(F)(F)F)cc(C(F)(F)F)c1 [fragment 51, reference compound]
- lysine reactivity ([1]; competition with probe 1 (100 μM)): No lysine reactivity was observed
- isoTOP-ABPP ratio, lysine Q9Y5X2_K316 [3]: 1.2
